Test [1] relates to EDRF. The experiment in a line: Restoration of depressed response to catecholamines / inhibition of vascular hyporeactivity (general statement).
The test system of test [2] is vascular reactivity (methoxamine). In words: Vascular reactivity to methoxamine in pithed rats perfused with endotoxin (EDTX). The test is classed as in vivo, Male Sprague Dawley rats. To be noted: for inhibition of vascular hyporeactivity: pithed rats, endotoxin 300 μg/kg/h, 60 min. As to the method: Male Sprague Dawley rats (280-320 g) were pithed and perfused continuously with endotoxin (EDTX, Escherichia Coli lipopolysaccharide OIII: B4; 300 μg/kg/h) for 60 min.

Test [3] is described as follows: Blood pressure in pithed rats perfused with endotoxin. The format is in vivo, Male Sprague Dawley rats. To be noted: endotoxin 300 μg/kg/h, 60 min. As for the experimental part: Male Sprague Dawley rats (280-320 g) were pithed and perfused continuously with endotoxin (EDTX, Escherichia Coli lipopolysaccharide OIII: B4; 300 μg/kg/h) for 60 min. […] A 60 min perfusion of endotoxin lipopolysaccharide (300 μg/kg/h) to pithed rats led to hypotension and impaired the vascular reactivity to pressor agents as observed in septic and endotoxinic shock in human. […] Their effects on blood pressure are however less marked. Association of blockers of cyclooxygenase (aspirin, indomethacin for instance . . . ) and blockers of EDRF results on a highly significative synergistic protective effect in both vascular hyperactivity and decrease of blood pressure induced by shock.

The test system of test [4] is thoracic aorta rings. In words: Contractile responses of thoracic aorta rings from endotoxin-treated rats (PE-induced contraction, loss of tonicity), organ bath. Details: species or system Sprague Dawley rats. To be noted: rings from endotoxin-treated animals; compounds of the invention at 10, 30 or 100 μM, with or without endothelium. As to the method:
Sprague Dawley rats (220-330 g) received a 10 mg/kg ip injection of Escherichia Coli endotoxin (0114B4 Sigma). After 3 hours, rats were sacrificed by cervical dislocation and the thoracic aorta removed and cleaned of the surrounding tissue. Rings 2 mm wide were suspended under a tension of 2 g at 37° C. in organ bath containing 10 ml of Krebs Henseleit physiological solution and gassed with 95% O2 /5% CO2. Contractile responses were measured using force displacement transducers (Auguet M., Delaflotte S., P. E. Chabrier, P. Braquet Comparative effects of endotelin and phorbol 12-13 dibutyrate in rat aorta. Life Sci. 45, 21, 2051-2059, 1989).
In some experiments, the endothelium was gently disrupted (-E). Phenylephrine (PE) induced contraction was stable over the time in control rings of animals receiving saline solution (0.9% NaCl) with (E+) or without (E-) endothelium. The arginine derivative (10, 30 or 100 μM) had no significant effect per se.
This phenomenon was accentuated with intact endothelium (E+).
In some experiments, the compounds of the invention were introduced in the bath 105 minutes after PE when the tissue had completely its tonicity. Under these conditions, the compounds of the invention, alone, were able to curatively and totally restore the contraction and therefore contribute extensively to vascular hyporesponsiveness to vasoconstrictor agents in shock. […]

With `CNC(=N)NCCC[C@@H](N)C(=O)O` [(D) N-methyl arginine, reference compound], the “activity in the field of the present invention” value in test [1] is listed as “deprived of any activity”.
On to `COC(=O)[C@@H](N)CCCNC(=N)N[N+](=O)[O-]` [L-NAME, L-nitroarginine methyl ester], for which the “inhibition of vascular hyporeactivity” value in test [2] is “inhibited in a dose dependent manner”. For the same compound, the “effects on blood pressure” value in test [3] is recorded as “less marked”. The “restoration of depressed response to catecholamines and inhibition of vascular hyporeactivity” value in test [1] is “able to restore depressed response to catecholamines and to effectively inhibit vascular hyporeactivity”.
For the compound `CC(=N)NCCC[C@H](N)C(=O)O` [L-NIO, L-iminoethylornithine], the “inhibition of vascular hyporeactivity” value in test [2] was “inhibited in a dose dependent manner”. Also, in test [3], the “effects on blood pressure” value is listed as “less marked”. For the same compound, the “restoration of depressed response to catecholamines and inhibition of vascular hyporeactivity” value in test [1] was “able to restore depressed response to catecholamines and to effectively inhibit vascular hyporeactivity”.
Consider `CNC(=N)NCCC[C@H](N)C(=O)O` [L-NMMA, L-N-monomethyl arginine], for which the “inhibition of vascular hyporeactivity” value in test [2] is given as “inhibited in a dose dependent manner”. The “effects on blood pressure” value in test [3] is “less marked”. Further, in test [1], the “restoration of depressed response to catecholamines and inhibition of vascular hyporeactivity” value was “able to restore depressed response to catecholamines and to effectively inhibit vascular hyporeactivity”.
Consider `N=C(N)NCCC[C@H](N)C(=O)O` [L-arginine], for which the “effect on loss of tonicity in endotoxin treated preparation” value in test [4] is on record as “enhanced the loss of tonicity”.
As usually defined, the ED50 is the dose at which the effect has come halfway, by size or by number of responders. A low value points to an effect at a small dose. `COc1ccc(OC)c(C(O)C(C)N)c1` (stereo not drawn) [methoxamine, reference compound] had an ED50 in test [2] (Rattus norvegicus, control rats, cumulative dose-response) of 0.079 ± 0.009 mg/kg.
